Experimental data as given in patent US20140011755A1, “Cardiac Glycosides for Treating Autoimmune Disease” (Department of Veterans Affairs, priority 2010, published 2014).

Columns and labels:
[1] = tested on: collagen-induced arthritis (CIA) joints; format: in vivo, DBA1/J mice; settings: cross-sectioned ankle joints, CIA prevention groups
Experimental: FIG. 7. Cardiac glycosides reduce joint pathology in the CIA mouse model for rheumatoid arthritis. Blinded scoring was performed on histologic sections of joints harvested from mice at the end of a CIA prevention study (A-C). Joints derived from three representative mice belonging to each prevention group (A-C) were decalcified, fixed and stained with tolidine blue, followed by scoring by an examiner blinded to treatment status for the severity of synovitis (inflammation), pannus (growth of the synovial lining), and erosions of bone. (D-G) Joints derived from three representative mice belonging to each prevention group were decalcified, fixed, and stained with hematoxylin and eosin. Cross-sectioned ankle joints from vehicle (D), digitoxin (E), ouabain (F) and proscillaridin (G) treated mice are presented. Error bars represent SEM, and asterisks indicate P-values less than 0.05 by Mann-Whitney test.
In treatment studies, mice were randomly enrolled in treatment groups and treatment commenced when the average clinical score was at or above 2. […] Daily dosing commenced upon enrollment at the abovementioned concentrations. […] Double-blinded histopathology scoring was conducted of cross-sectioned joints taken from cardiac glycoside and vehicle recipients. […] The results obtained from these animal studies indicate that cardiac glycosides are effective at reducing the clinical manifestations of disease and reducing joint pathology in mice with collagen arthritis.
The effects of the different cardiac glycoside treatments on CIA pathology was analyzed by histological scoring. Inflammatory cell infiltrate, synovial hyperplasia, pannus formation and articular cartilage and bone deterioration were evaluated in sectioned paws of treated mice at specific time-points throughout the disease course. […] The ELISA was developed and read using BD ELISA development kit. […]

[2] = Human, 3 × 0.5 mg/kg per diem, oral; Andersson, et al. (1975); cited from earlier work
TNFR = format: cell-based, mice; settings: pre-treatment with 3.3 or 33 nM
Experimental: (§1) Activity was monitored by ^3H-thymidine incorporation as a read-out for proliferation. […] Cell type(s) in the splenocyte population responsive to therapeutic concentrations of cardiac glycoside were determined by identifying the population of cells that responded to a dose-dependent decrease in activity in the presence of stimulant, defined as ligand(s) binding to cognate receptor(s). Activity was analyzed by: ^3H-thymidine or BrdU incorporation to monitor proliferation or by ELISA to monitor cytokine production. Splenic T lymphocytes were isolated by negative selection (MACS, Miltinyi Biotec) and are stimulated with PMA, ConA or through the TCR with anti-CD3/anti-CD28 Dynabeads (Invitrogen) and collagen II (all non-TNFR receptors/pathways). […] Peritoneal and bone marrow-derived macrophages were isolated from CIA mice in the presence of M-CSF growth factor and were stimulated with TNF and CD40 ligand (CD40L). […] Splenic B lymphocytes were isolated by negative selection (MACS, Miltinyi Biotec) and were stimulated with BAFF (BLyS), CD40L or through the BCR with anti-IgM u-chain specific antibodies.

CD40 = target: T1, CD40 (Mus musculus, UniProt P27512); format: cell-based, mice; settings: pre-treatment with 3.3 or 33 nM
T1 construct: Peritoneal and bone marrow-derived macrophages were isolated from CIA mice; endogenous in cells; host or cells: peritoneal and bone marrow-derived macrophages from CIA mice
T1 sequence (P27512 20-289): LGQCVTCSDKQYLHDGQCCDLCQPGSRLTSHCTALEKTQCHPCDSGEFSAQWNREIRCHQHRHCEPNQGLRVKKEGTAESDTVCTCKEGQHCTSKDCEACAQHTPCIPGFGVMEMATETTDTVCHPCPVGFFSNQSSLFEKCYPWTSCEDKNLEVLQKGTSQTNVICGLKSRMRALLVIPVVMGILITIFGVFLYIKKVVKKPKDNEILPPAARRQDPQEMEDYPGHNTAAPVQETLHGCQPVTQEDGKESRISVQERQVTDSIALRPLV
Experimental: as §1

[3] = injectable versus other formulations; cited from earlier work
[4] = tested on: TNF-mediated NFκB activity in HeLa cells; assay: NFκB luciferase reporter assay in TNF-stimulated HeLa cells; format: cell-based; settings: pre-treatment 6 hours with 0-500 nM, 50 ng/mL TNF
Experimental: FIG. 8. […] Values represent mean light units produced. Error bars represent SEM, and statistical significance was determined by unpaired T-test. Single and double asterisks represent P-values of 0.01 or 0.001, respectively. […] Samples were harvested at designated time points and were fractionated into nuclear and cytoplasmic lysates (Pierce). Lysates were quantified using BCA (Pierce), and were equally loaded according to total protein. Membranes were probed for levels of nuclear phospho-p65 (ReIA), phospho-ReIB, and histone (histone served as loading control and fractionation method control) and cytoplasmic degradation of IκBα (beta-tubulin served as loading control and fractionation method control).
HeLa cells were co-transfected with the reporter pNFκB-luc and control vector pTAL (Renilla) for 18 h prior to incubation with 0-500 nM cardiac glycoside for 6 h. Cells are stimulated with 50 ng/mL TNF. […] FIG. 8 B).

[5] = tested on: collagen-induced arthritis (CIA); format: in vivo, DBA1/J mice
[6] = tested on: anti-type II collagen antibodies; format: in vivo; settings: sera of 6 mice per prevention group, ANOVA
Experimental: FIG. 10. Cardiac glycosides reduce immunoglobulin levels in CIA mice. ELISAs for anti-type II collagen antibodies were performed on sera derived from 6 representative mice of each prevention group (A, B). Isotype specific antibodies for IgG1 and IgG2a (A) and IgM (B) were utilized. […] Statistical analysis was performed using ANOVA and asterisks indicate points at which the P-values were less than 0.001.
The effects of the different cardiac glycoside treatments on CIA pathology was analyzed by histological scoring. Inflammatory cell infiltrate, synovial hyperplasia, pannus formation and articular cartilage and bone deterioration were evaluated in sectioned paws of treated mice at specific time-points throughout the disease course. Histopathology scores of inflammation, pannus formation and bone and cartilage erosions were conducted by a blinded investigator on toludine blue-stained cross sections of fixed leg joints from representative mice in vehicle and glycoside groups. Pathology scoring for each of the three categories are on a scale of 0-4 with grade 0=normal, 1=mild inflammation, hyperplasia of the synovial lining, cartilage destruction without bone erosion, grades 2 to 4=increasing degrees of inflammatory cell infiltrate, synovial hyperplasia, pannus formation and cartilage and bone destruction. Error bars represent SEM and statistics were performed using the Mann-Whitney test. At the endpoint, mice are bled and serum is collected from representative mice and stored at −80 C until use. To determine anti-collagen II antibody levels and to characterize isotype prevalence, bovine collagen II (Chondrex) was coated O/N at 4 C on an ELISA plate, washed and incubated with 100 uL of 1:10 dilution of each serum sample (in triplicate) for 2 h at RT. Wells were washed and incubated with anti-mouse IgM u-chain specific (Jackson), anti-mouse IgG1, or anti-mouse IgG2a (Southern Biotech) for 1 h at RT. The ELISA was developed and read using BD ELISA development kit. Statistical analysis was performed using the two-tailed ANOVA and asterisks represent P-values less than 0.01.

TNF, IL-6 and IL-1beta = assay: Serum cytokine ELISA in CIA treatment groups; format: in vivo; settings: serum from 3 mice per treatment group, ELISA in triplicate
From the text: FIG. 9. Serum cytokine levels are similar between vehicle and cardiac glycoside treatment groups. […] The unpaired student t-test was used to assess significance.

erectile dysfunction = settings: 20 mg sublingual; cited from earlier work
[7] = daily i.p. from Mean Visual Score of 2, digitoxin 0.3 mg/kg, proscillaridin […], Mann-Whitney

Row | SMILES | immune cell infiltrate into the joints (hematoxylin and eosin) [1] | Serum conc. [2] | TNF-mediated activation of macrophage through TNFR (TNFR) | CD40L-mediated activation of macrophage through CD40 (CD40) | bioavailability by formulation [3] | TNF-mediated NFκB activation (luciferase light units) [4] | Mean Paw Thickness, treatment of established arthritis [5, 7] | Mean Visual Score, treatment of established arthritis [5, 7] | development of CIA (Mean Visual Arthritis Score, Mean Paw Thickness), prevention study ([5]; daily i.p. from the day prior to induction, digitoxin 0.3 mg/kg, ouabain 0.03 mg/kg, proscillaridin […]) | average clinical arthritis scores compared to vehicle, prevention study ([5]; first dose one day prior to boost, 0.3 mg/kg digitoxin, 0.03 mg/kg ouabain, […] proscillaridin, 0.35 mg/kg digoxin, […] bufalin, 15 mice per group) | prevention and treatment of collagen-induced arthritis (CIA) ([5]; murine model for rheumatoid arthritis, summary statement) | anti-type II collagen IgG1 level relative to vehicle [6] | anti-type II collagen IgM level relative to vehicle [6] | Serum cytokine levels (TNF, IL-6 and IL-1beta) versus vehicle (TNF, IL-6 and IL-1beta) | safety and efficacy of sublingual administration (erectile dysfunction)
1 | C[C@@H]1O[C@@H](O[C@@H]2C=C3CC[C@@H]4[C@H](CC[C@]5(C)[C@@H](c6ccc(=O)oc6)CC[C@]45O)[C@@]3(C)CC2)[C@H](O)[C@H](O)[C@H]1O [Proscillaridin, proscillaridin A] | decreased amounts of immune cell infiltrate | 0.75 ng/mL | inhibits | inhibits | higher bioavailability with injectable formulations | reduced TNF-mediated NFκB activation in a dose-dependent fashion | statistically significant reductions | statistically significant reductions | prevented the development of CIA | significantly reduced | potently prevent and treat | reduced levels | reduced levels | similar | –
2 | CCCc1nn(C)c2c(=O)[nH]c(-c3cc(S(=O)(=O)N4CCN(C)CC4)ccc3OCC)nc12 [sildenafil] | – | – | – | – | – | – | – | – | – | – | – | – | – | – | safe and effective
